Patent US20110124644A1, “METHODS OF DIAGNOSING AND CHARACTERIZING CANNABINOID SIGNALING IN CROHN'S DISEASE” (CEDARS-SINAI MEDICAL CENTER, priority 2008, published 2011)

Assays:
CB2 receptor = assay: CB2 agonist (AM1241) inhibition of forskolin-stimulated cAMP production in patient lymphoblastoid cell lines, ELISA; type: cell-based, human; conditions: 250 nM AM1241; 25 nM forskolin; Crohn's disease patient LCLs
Experimental: FIG. 7 depicts, in accordance with an embodiment herein, CB2 receptor protein expression and function. Flow cytometry data derived from staining of 40 Crohn's disease patient lymphoblastoid cell lines with monoclonal CB2 receptor (IgG2A) was generated. LCLs from patients with Crohn's disease were grown in culture and plated 1×10^6 per well on a 96 well plate. These cells were then incubated for 20 minutes with 10 mM IBMX, a phosphodiesterase inhibitor, and washed. Cells were incubated in the presence of various concentrations of forskolin or media control with or without the addition of 250 nM AM1241. Samples were run in triplicate. […] Plates were frozen at −20 degrees and lysates assayed the following day for cAMP concentration using a commercial ELISA kit (R and D) and microwell ELISA plate reader.
A CNR2 candidate gene case-control analysis was performed with 449 patients with Crohn's disease, 215 with ulcerative colitis, and 201 controls. […] EBV immortalized lymphoblastoid cell lines (LCLs) were analyzed for CB2 receptor by flow cytometry, and for CB2 receptor function (Gi-mediated adenylate cyclase inhibition) by CB2 agonist (AM1241) inhibition of forskolin-stimulated cAMP production, measured by ELISA.
To assess the LCL response to CB2 specific agonist, intracellular cAMP was quantified using a standard ELISA kit (R and D Systems). […]

[1] = test system: murine model of immune colitis (Rag1 −/− mice); assay: Immune colitis model: transfer of Gαi2−/− T cells into Rag1 −/− mice; type: in vivo, mouse; conditions: i.p. every other day, vs DMSO vehicle
[2] = test system: murine model of acute colitis (DSS, C3H/HeJ mice); assay: Acute colitis model: dextran sodium sulfate (DSS) colitis; type: in vivo, mouse; conditions: 3.5% DSS; 1 mg/kg i.p. from two days before DSS, then every other day
Source text: FIG. 11 (a) depicts, in accordance with an embodiment herein, the effect of CB2 agonist on murine model of acute colitis. Groups of 5 wildtype C3H/HeJ mice were challenged with either DSS 3.5% or acidified water and injected intraperitoneally with CB2 agonist (AM1241(AM)) or antagonist (SR144928 (SR)) or vehicle control (DMSO (D) for AM1241, or EtOH (E) for SR144928) and monitored for weight loss. Intestinal sections were scored histologically at day 10. (b) and (c.) depicts the comparison of DSS colitis in CB2−/− and WT mice, with (b) weight loss and (c) histologic scoring. This is representative of three or more independent experiments.
3.5% Dextran sulfate sodium (prepared in acidified drinking water) was obtained from MP Biomedicals, Inc (Solon, Ohio). Acidified drinking water of colitis-induced mice was replaced with DSS solution for a total of eight days. Controls were given standard acidified drinking water. All mice were sacrificed on day 12, at which time the DSS-treated mice had lost approximately 20% of their body weight. Experiments were performed in duplicate, with groups of 6 mice in each treatment arm. AM1241 (Sigma-Aldrich, MO, in DMSO, 1 mg/mL) was suspended in 250 μL sterile 0.9% saline and injected intraperitoneally (i.p.) at a dose of 1 mg/kg beginning two days prior to the administration of DSS (or acidified drinking water in the control group) and then every other day until the mice were euthanized. […]
Colitis was quantified by both weight loss and histology of intestinal sections. […] Each section was then scored by one blinded pathologist using a standard experimental colitis scoring system.
The effect of CB2-specific agonist in the setting of acute colitis was evaluated using dextran sodium sulfate (DSS), an ingested agent which induces acute, non-T cell mediated colitis (weight loss and bloody diarrhea) within three to five days. Mice were pre-treated with AM1241 or vehicle control, and then monitored for the level of acute colitis induced by DSS ingestion. […]

Compound	inhibition of forskolin-stimulated adenylate cyclase-dependent cAMP response (CB2 receptor)	weight loss compared to vehicle control ([1]; Rag1 −/− mice after Gαi2−/− T cell transfer)	quantitative histologic scoring of intestinal inflammation compared to vehicle control ([1]; sacrificed 8 weeks after T cell transfer)	DSS colitis severity compared to vehicle control [2]
CN1CCCCC1Cn1cc(C(=O)c2cc([N+](=O)[O-])ccc2I)c2ccccc21 (stereo not drawn) [AM1241]	approximately 55%	lost significantly less weight	dramatically reduced for inflammation	significantly more severe
COc1ccc(C(=O)c2c(C)n(CCN3CCOCC3)c3cc(I)ccc23)cc1 [AM630]				reduced DSS colitis severity
SR144528				ameliorated DSS colitis
